Counter-ions that a name gives are not always drawn.

A word on the IC90: it is the concentration needed for an effect of 90%.

The test system of the first test is Acinetobacter baumannii ATCC 17978. Kind of test: Antimicrobial susceptibility testing: 90% growth inhibitory concentration (IC90) determination. As to conditions: 90% growth inhibitory concentration; Acinetobacter baumannii ATCC17978; Iso-Sensitest broth, OD 600 nm over 16h; read-out: ATCC17978 IC90. In kind it is cell-based. A digest of the protocol:
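Compounds serially twofold diluted (e.g. 50 to 0.097 μM final) in Iso-Sensitest broth, inoculated at ~5×10^(5) CFU/ml, incubated at 35±2° C. OD600 read every 20 minutes over 16h. IC90 taken as concentration inhibiting 90% of growth during logarithmic phase.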
As for `CCc1cc(Nc2nccn3c(-c4ccc(OC(F)F)c(F)c4F)cnc23)ccc1C(=O)N[C@@H](C)CN` [Example 312, N-[(2S)-1-aminopropan-2-yl]-4-[[3-[4-(difluoromethoxy)-2,3-difluorophenyl]imidazo[1,2-a]pyrazin-8-yl]amino]-2-ethylbenzamide; hydrochloride], the IC90 came to 1200 nM.
For `Cc1cc(Nc2nccn3c(-c4ccc(OC(F)F)c(F)c4)cnc23)ccc1C(=O)N(C)CCC1CCNCC1` [Example 89, 4-((3-(4-(difluoromethoxy)-3-fluorophenyl)imidazo [1,2-a]pyrazin-8-yl)amino)-N,2-dimethyl-N-(2-(piperidin-4-yl)ethyl)benzamide hydrochloride], the IC90 amounted to 230 nM.
On to `CCc1cc(Nc2nccn3c(-c4ccc(OC)c(F)c4F)cnc23)ccc1C(=O)NCCCN` [Example 118, N-(3-aminopropyl)-4-((3-(2,3-difluoro-4-methoxyphenyl)imidazo[1,2-a]pyrazin-8-yl)amino)-2-ethylbenzamide dihydrochloride], for which the 90% effect concentration (IC90) was found to be 450 nM.
Turning to `CCc1cc(Nc2nccn3c(-c4ccc(Oc5ncccn5)c(F)c4F)cnc23)ccc1C(=O)NCCNC(=O)[C@H](N)CCNC(=N)N` [Example 439, N-[2-[[(2R)-2-amino-4-guanidino-butanoyl]amino]ethyl]-4-[[3-(2,3-difluoro-4-pyrimidin-2-yloxy-phenyl)imidazo[1,2-a]pyrazin-8-yl]amino]-2-ethyl-benzamide; formic acid], the 90% effect concentration (IC90) was 340 nM.
Regarding `CCc1cc(Nc2nccn3c(-c4ccc(OC)c(F)c4F)cnc23)ccc1C(=O)NCCCCCCCN` [Example 517, N-(7-aminoheptyl)-4-((3-(2,3-difluoro-4-methoxyphenyl)imidazo[1,2-a]pyrazin-8-yl)amino)-2-ethylbenzamide hydrochloride], the IC90 stood at 67 nM.
Still for that read-out and setting: as for `COc1ccc(-c2cnc3c(Nc4ccc(C(=O)N(C)CC(=O)N5CCNCC5)c(C)c4)nccn23)cc1F` [Example 5, hydrochloride], the figure is 650 nM.

Staying with this test, now noted: Acinetobacter baumannii, ATCC17978, 16 h, 90% growth inhibitory concentration; Acinetobacter baumannii ATCC17978; Iso-Sensitest broth, OD 600 nm over 16h; read-out: ATCC17978 IC90.
`COc1ccc(-c2cnc3c(Nc4ccc(C(=O)N(C)CCN5CCCCC5)c(C)c4)nccn23)cc1F` [Example 267, 4-[[3-(3-fluoro-4-methoxyphenyl)imidazo[1,2-a]pyrazin-8-yl]amino]-N,2-dimethyl-N-(2-piperidin-1-ylethyl)benzamide]: the IC90 was found to be 5400 nM.
Same read-out and setting: for `COc1ccc(-c2cnc3c(Nc4ccc(C(=O)NCCCN5CCNCC5=O)c(C)c4)nccn23)c(F)c1F` [Example 69, 4-((3-(2,3-difluoro-4-methoxyphenyl)imidazo [1,2-a]pyrazin-8-yl)amino)-2-methyl-N-(3-(2-oxopiperazin-1-yl)propyl)benzamide] the value was 270 nM; for `CCc1cc(Nc2nccn3c(-c4ccc(Oc5ccc(F)cn5)c(F)c4F)cnc23)ccc1C(=O)NCCNC(=O)[C@H](N)CCCNC(=N)N` [Example 424, N-[2-[[(2R)-2-amino-5-guanidino-pentanoyl]amino]ethyl]-4-[[3-[2,3-difluoro-4-[(5-fluoro-2-pyridyl)oxy]phenyl]imidazo [1,2-a]pyrazin-8-yl]amino]-2-ethyl-benzamide; formic acid], 900 nM.
Turning to `CCc1cc(Nc2nccn3c(-c4ccc(OC)c(F)c4F)cnc23)ccc1C(=O)NC(C)(C)CNC(=O)[C@@H](N)CCCCN` [Example 326, N-[1-[[(2S)-2,6-diaminohexanoyl]amino]-2-methylpropan-2-yl]-4-[[3-(2,3-difluoro-4-methoxyphenyl)imidazo[1,2-a]pyrazin-8-yl]amino]-2-ethylbenzamide], the IC90 was found to be 190 nM.
The same measure, in the same setting: for `COc1ccc(-c2cnc3c(Nc4ccc(C(=O)N(C)CCC5CCNCC5)c(C)c4)nccn23)cc1` [Example 182, 4-[[3-(4-methoxyphenyl)imidazo[1,2-a]pyrazin-8-yl]amino]-N,2-dimethyl-N-(2-piperidin-4-ylethyl)benzamide; hydrochlo-ride] the value was 180 nM.
On the same count and under the same terms, as for `CCc1cc(Nc2nccn3c(-c4ccc(OC(F)F)c(F)c4F)cnc23)ccc1C(=O)NCCC(=O)NCCN(C)C` [Example 325, 4-[[3-[4-(difluoromethoxy)-2,3-difluorophenyl]imidazo[1,2-a]pyrazin-8-yl]amino]-N-[3-[2-(dimethylamino)ethylamino]-3-oxopropyl]-2-ethylbenzamide], the figure is 150 nM; as for `CNC(=O)c1ccc(Nc2nccn3c(-c4ccc(OC(F)F)cc4)cnc23)cc1C1CC1` [Example 167, 2-cyclopropyl-4-[[3-[4-(difluoromethoxy)phenyl]imidazo[1,2-a]pyrazin-8-yl]amino]-N-methyl-benzamide], 1100 nM.
For `CCc1cc(Nc2nccn3c(-c4ccc(OC)c(F)c4F)cnc23)ccc1C(=O)NCC(N)CO` (stereo not drawn) [Example 525, N-(2-amino-3-hydroxypropyl)-4-((3-(2,3-difluoro-4-methoxyphenyl)imidazo[1,2-a]pyrazin-8-yl)amino)-2-ethylbenzamide hydrochloride], the concentration for an effect of 90% (IC90) was determined as 350 nM.
Same read-out and setting: for `COc1ccc(-c2cnc3c(Nc4ccc(C(=O)N[C@H](C)CNC(=N)C(C)C)c(C)c4)nccn23)c(F)c1F` [Example 498, 4-[[3-(2,3-difluoro-4-methoxyphenyl)imidazo[1,2-a]pyrazin-8-yl]amino]-2-methyl-#N!-[(2#R!)-1-(2-methylpropanimidoylamino)propan-2-yl]benzamide] the value was 140 nM; for `CCc1cc(Nc2nccn3c(-c4ccc(OC(F)F)c(F)c4F)cnc23)ccc1C(=O)NCCCCN` [Example 94, N-(4-aminobutyl)-4-((3-(4-(difluoromethoxy)-2,3-difluorophenyl)imidazo [1,2-a]pyrazin-8-yl)amino)-2-ethylbenzamide hydrochloride], 280 nM; for `CNC(=O)c1ccc(Nc2nccn3c(-c4ccc(OC(F)F)cc4)cnc23)cc1CO` [Example 225, 4-[[3-[4-(difluoromethoxy)phenyl]im-idazo[1,2-a]pyrazin-8-yl]amino]-2-(hydroxymethyl)-N-methylbenzamide], 1100 nM.
Same read-out and setting: for `COc1ccc(-c2cnc3c(Nc4ccc(C(=O)N(C)CCCC(=O)N5CCNCC5)c(C)c4)nccn23)cc1F` [Example 207, 4-[[3-(3-fluoro-4-methoxyphenyl)imidazo[1,2-a]pyrazin-8-yl]amino]-N,2-dimethyl-N-(4-oxo-4-piperazin-1-ylbutyl)benzamide;hydrochlo-ride] the value was 560 nM; for `COc1ccc(-c2cnc3c(Nc4ccc(C(=O)NCC5CCN(C(=N)N)CC5)c(C)c4)nccn23)cc1Cl` [Example 82, N-((1-carbamimidoyl-piperidin-4-yl)methyl)-4-((3-(3-chloro-4-methoxyphenyl)imidazo [1,2-a]pyrazin-8-yl)amino)-2-methylbenzamide], 270 nM; for `CCc1cc(Nc2nccn3c(-c4ccc(OC)c(F)c4F)cnc23)ccc1C(=O)NCCCNC(=O)CN` [Example 103, N-(3-(2-aminoacetamido)propyl)-4-((3-(2,3-difluoro-4-methoxyphenyl)imidazo [1,2-a]pyrazin-8-yl)amino)-2-ethylbenzamide hydrochloride], 80 nM.
The same measure, in the same setting: for `Cc1cc(Nc2nccn3c(-c4ccc(OCC#N)c(F)c4F)cnc23)ccc1C(=O)NCCNC(=O)[C@@H]1C[C@](C)(O)CN1` [Example 133, (2S,4S)-N-[2-[[4-[[3-[4-(cyanomethoxy)-2,3-difluoro-phenyl]imidazo[1,2-a]pyrazin-8-yl]amino]-2-methyl-benzoyl]amino]ethyl]-4-hydroxy-4-methyl-pyrrolidine-2-carboxamide formate] the value was 90 nM; for `COc1ccc(-c2cnc3c(Nc4ccc(C(=O)NCCNC(=O)[C@@H]5CCNC[C@@H]5O)c(C)c4)nccn23)c(F)c1F` [Example 459, (3R,4R)-N-[2-[[4-[[3-(2,3-difluoro-4-methoxy-phenyl)imidazo[1,2-a]pyrazin-8-yl]amino]-2-methyl-benzoyl]amino]ethyl]-3-hydroxy-piperidine-4-carboxamide; formic acid], 940 nM; for `COc1ccc(-c2cnc3c(Nc4ccc(C(=O)N(C)CC5CCOC5)c(C)c4)nccn23)cc1F` (stereo not drawn) [Example 71, 4-((3-(3-fluoro-4-methoxyphenyl)imidazo [1,2-a]pyrazin-8-yl)amino)-N,2-dimethyl-N-((tetrahydrofuran-3-yl)methyl)benzamide], 1100 nM.
Consider `CCc1cc(Nc2nccn3c(-c4ccc(Oc5ccccn5)c(F)c4F)cnc23)ccc1C(=O)NCCNC(=O)[C@H](N)CCCNC(=N)N` [Example 422, N-[2-[[(2R)-2-amino-5-guanidino-pentanoyl]amino]ethyl]-4-[[3-[2,3-difluoro-4-(2-pyridyloxy)phenyl]imidazo [1,2-a]pyrazin-8-yl]amino]-2-ethyl-benzamide; formic acid], for which the IC90 came out at 870 nM.
As to `CCc1cc(Nc2nccn3c(-c4ccc(Oc5ccc(OC)cn5)c(F)c4F)cnc23)ccc1C(=O)NCCNC(=O)[C@@H](N)CCNC(=N)N` [Example 449, N-[2-[[(2S)-2-amino-4-guanidino-butanoyl]amino]ethyl]-4-[[3-[2,3-difluoro-4-[(5-methoxy-2-pyridyl)oxy]phenyl]imidazo [1,2-a]pyrazin-8-yl]amino]-2-ethyl-benzamide; formic acid], the IC90 turned out to be 530 nM.
Take `CCc1cc(Nc2nccn3c(-c4ccc(Oc5nccs5)c(F)c4F)cnc23)ccc1C(=O)NCCCN` [Example 482, #N!-(3-aminopropyl)-4-[[3-[2,3-difluoro-4-(1,3-thiazol-2-yloxy)phenyl]imidazo[1,2-a]pyrazin-8-yl]amino]-2-ethylbenzamide]: the 90% effect concentration (IC90) is 880 nM.
Regarding `COc1ccc(-c2cnc3c(Nc4ccc(C(=O)N(C)CCCN)cc4)nccn23)cc1` [Example 33, N-(3-aminopropyl)-4-((3-(4-methoxyphenyl)imidazo [1,2-a]pyrazin-8-yl)amino)-N-methylbenzamide hydrochloride], the IC90 turned out to be 4900 nM.

Source of the values: patent publication US20230012368A1 (Hoffmann-La Roche Inc., priority 2018, published 2023).
